Measured values as given in patent US20210395210A1, “INHIBITION OF BACTERIAL CHAPERONIN SYSTEMS” (THE TRUSTEES OF INDIANA UNIVERSITY, priority 2018, published 2021).
Like-named read-outs stand apart in the source and are kept apart here.

Legend:
native MDH = target: T1, native MDH (Sus scrofa, UniProt P00346); assay: Counter-screen for inhibition of native MDH enzymatic activity; type: biochemical, pig
T1 construct: soluble pig heart MDH from Roche, product #10127248001; purchased Roche 10127248001; host or cells: pig heart
T1 sequence (P00346 25-338): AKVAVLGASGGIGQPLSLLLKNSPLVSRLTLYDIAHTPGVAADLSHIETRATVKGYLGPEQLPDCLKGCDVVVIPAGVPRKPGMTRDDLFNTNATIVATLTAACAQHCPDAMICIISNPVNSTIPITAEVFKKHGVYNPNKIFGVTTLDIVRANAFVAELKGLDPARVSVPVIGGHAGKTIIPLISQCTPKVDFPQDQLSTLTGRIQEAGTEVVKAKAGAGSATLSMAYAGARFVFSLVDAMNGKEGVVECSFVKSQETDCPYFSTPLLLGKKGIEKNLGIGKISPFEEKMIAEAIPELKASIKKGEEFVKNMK
Procedure, shortened: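 Fully refolded MDH, produced by a 45 min, 37 °C GroEL/ES reaction and stopped with EDTA, was then dosed with compound (62.5 μM–29 nM, 8 points, 3-fold). Activity was read as A340 NADH decrease until ~90% consumed; reported IC50s are means of at least quadruplicate runs.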

[1] = test system: Enterococcus faecium (ATCC 19434); assay: Bacterial proliferation assay, E. faecium; type: cell-based
Source text: (§1) Bacterial Strains: Enterococcus faecium—(Orla-Jensen) Schleifer and Kilpper-Balz strain NCTC 7171 (ATCC 19434); Drug sensitive Staphylococcus aureus—Rosenbranch strain Seattle 1945 (ATCC 25923); Methicillin resistant S. aureus (MRSA)—Rosenbach strain HPV107 (ATCC BAA-44); Klebsiella Pneumonia—(Schroeter) Trevisan strain NCTC 9633 (ATCC 13883); Acinetobacter baumannii—Bouvet and Grimont strain 2208 (ATCC 19606); Pseudomonas aeruginosa—(Schroeter) Migula strain NCTC 10332 (ATCC 10145); Enterobacter cloacae—E. cloacae, subsp. cloacae (Jordan) Hormaeche and Edwards strain CDC 442-68 (ATCC 13047).
(§2) Growth Media: All bacteria were grown in Brain Heart Infusion (BHI) broth/agar (Becton, Dickinson and Company). All liquid cultures were grown in BHI media supplemented with 25 mg/L Ca^2+ and 12.5 mg/L Mg^2+ to mimic free physiological concentrations of these cations. A 10 mg/mL Ca^2+ stock solution was prepared by dissolving 3.68 g of CaCl2.2H2O in 100 mL of deionized water, and a 10 mg/mL Mg^2+ stock solution was prepared by dissolving 8.36 g of MgCl2.6H2O in 100 mL deionized water. Both stock solutions were filter-sterilized using 0.2 μm pore size cellulose-acetate filters. 2.5 mL of the sterile 10 mg/mL Ca^2+ stock and 1.25 mL of the sterile 10 mg/mL Mg^2+ stock solutions were added per 1 L of autoclaved BHI medium to obtain 25 mg/L Ca^2+ and 12.5 mg/L Mg^2+ ions, respectively.
(§3) General Assay Protocol: Stock bacterial cultures were streaked onto BHI agar plates and grown overnight at 37° C. Fresh aliquots of broth were inoculated with single bacterial colonies and the cultures were grown overnight at 37° C. with shaking (240 rpm) in cation adjusted BHI media. The following morning, the overnight cultures were sub-cultured (1:5 dilution) into fresh aliquots of cation adjusted BHI media and grown at 37° C. for 1-2 hours with shaking. After 2 h, cultures were diluted into fresh media to achieve final OD600 readings of 0.017. Aliquots of these diluted cultures (30 μL) were added to clear, flat-bottom, 384-well polystyrene plates that were stamped with 0.5 μL of test compounds in 20 μL media. […] Plates were sealed with “Breathe Easy” oxygen permeable membranes (Diversified Biotech) and left to incubate at 37° C. without shaking (stagnant assay). OD600 nm readings were taken at either 6-8 h (S. aureus, MRSA, K. pneumonia, E. cloacae, and P. aeruginosa) or 24 h (E. faecium and A. baumannii). A second set of baseline control plates were prepared analogously, but without any bacteria added, to correct for possible compound absorbance and/or precipitation. Plates were then read at 600 nm using a Molecular Devices SpectraMax Plus384 microplate reader. […] Results presented represent the averages of EC50 values obtained from at quadriplicate (duplicate of duplicate) replicates.

[2] = test system: Methicillin resistant S. aureus (MRSA) (ATCC BAA-44); assay: Bacterial proliferation assay, MRSA; type: cell-based, Staphylococcus aureus; settings: Staphylococcus aureus, MRSA
Source text: as §1, §2, §3

[3] = test system: Klebsiella Pneumonia (ATCC 13883); assay: Bacterial proliferation assay, K. pneumoniae; type: cell-based
Source text: as §1, §2, §3

[4] = test system: Acinetobacter baumannii (ATCC 19606); assay: Bacterial proliferation assay, A. baumannii; type: cell-based
Source text: as §1, §2, §3

[5] = log of IC50 (μM scale), with standard deviation, read-out: log(IC50) Native MDH Reporter (converted)
[6] = read-out: Biochemical Assay IC50 Native MDH Reporter
[7] = ATCC19434, OD600 at 24 h, read-out: Bacterial Proliferation EC50 E. faecium
[8] = ATCC19434, log of EC50 (μM scale), with standard deviation, read-out: log(EC50) Bacterial Proliferation Assay C. faecium (converted)
[9] = OD600 at 6-8 h, read-out: Bacterial Proliferation EC50 S. aureus Resistant
[10] = log of EC50 (μM scale), with standard deviation, read-out: log(EC50) Bacterial Proliferation Assay S. aureus Resistant (converted)
[11] = ATCC13883, OD600 at 6-8 h, read-out: Bacterial Proliferation EC50 K. pneumoniae
[12] = ATCC13883, log of EC50 (μM scale), with standard deviation, read-out: log(EC50) Bacterial Proliferation Assay K. pneumoniae (converted)
[13] = ATCC19606, OD600 at 24 h, read-out: Bacterial Proliferation EC50 A. baumannii
[14] = ATCC19606, log of EC50 (μM scale), with standard deviation, read-out: log(EC50) Bacterial Proliferation Assay A. baumannii (converted)

| Compound | IC50 (native MDH; [5]) [µM] | IC50 (native MDH; [6]) [µM] | EC50 [1, 7] [µM] | EC50 [1, 8] [µM] | EC50 [2, 9] [µM] | EC50 [2, 10] [µM] | EC50 [3, 11] [µM] | EC50 [3, 12] [µM] | EC50 [4, 13] [µM] | EC50 [4, 14] [µM] |
| --- | --- | --- | --- | --- | --- | --- | --- | --- | --- | --- |
| O=C(Nc1cccc(Cl)c1)c1cc(Br)cc(Br)c1 [Compound 23, 3,5-Dibromo-N-(3-chlorophenyl)benzamide] | > 63.1 | > 63 | > 100 | > 100 | 12 | 11.7 | > 100 | > 100 | > 100 | > 100 |
| O=C(Nc1cccc(Cl)c1)c1cccc(Br)c1 [Compound 24, 3-Bromo-N-(3-chlorophenyl)benzamide] | > 63.1 | > 63 | > 100 | > 100 | 68 | 67.6 | > 100 | > 100 | > 100 | > 100 |
| O=C(Nc1cccc(Cl)c1)c1ccccc1 [Compound 25, N-(3-Chlorophenyl)benzamide] | > 63.1 | > 63 | > 100 | > 100 | – | > 100 | > 100 | > 100 | > 100 | > 100 |
| O=C(Nc1ccccc1)c1cc(Br)cc(Br)c1 [Compound 26, 3,5-Dibromo-N-phenylbenzamide] | > 63.1 | > 63 | > 100 | > 100 | – | > 100 | > 100 | > 100 | > 100 | > 100 |
| O=C(Nc1ccccc1)c1cccc(Br)c1 [Compound 27, 3-Bromo-N-phenylbenzamide] | > 63.1 | > 63 | > 100 | > 100 | – | > 100 | > 100 | > 100 | > 100 | > 100 |
| COc1c(Br)cc(Br)cc1C(=O)Nc1ccc(Sc2nc3ccccc3s2)c(Cl)c1 [Compound 29, N-(4-(Benzo[d]thiazol-2-ylthio)-3-chlorophenyl)-3,5-dibromo-2-methoxybenzamide] | > 63.1 | > 63 | > 100 | > 100 | – | > 100 | > 100 | > 100 | > 100 | > 100 |
| COc1c(Br)cccc1C(=O)Nc1ccc(Sc2nc3ccccc3s2)c(Cl)c1 [Compound 30, N-(4-(Benzo[d]thiazol-2-ylthio)-3-chlorophenyl)-3-bromo-2-methoxybenzamide] | > 63.1 | > 63 | > 100 | > 100 | – | > 100 | > 100 | > 100 | > 100 | > 100 |
| COc1ccc(Br)cc1C(=O)Nc1ccc(Sc2nc3ccccc3s2)c(Cl)c1 [Compound 31, N-(4-(Benzo[d]thiazol-2-ylthio)-3-chlorophenyl)-5-bromo-2-methoxybenzamide] | > 63.1 | > 63 | > 100 | > 100 | – | > 100 | > 100 | > 100 | > 100 | > 100 |
| COc1ccccc1C(=O)Nc1ccc(Sc2nc3ccccc3s2)c(Cl)c1 [Compound 32, N-(4-(Benzo[d]thiazol-2-ylthio)-3-chlorophenyl)-2-methoxybenzamide] | > 63.1 | > 63 | > 100 | > 100 | – | > 100 | > 100 | > 100 | > 100 | > 100 |
| COc1c(Br)cc(Br)cc1C(=O)Nc1ccc(Sc2nc3ccccc3s2)cc1 [Compound 33, N-(4-(Benzo[d]thiazol-2-ylthio)phenyl)-3,5-dibromo-2-methoxybenzamide] | > 63.1 | > 63 | > 100 | > 100 | – | > 100 | > 100 | > 100 | > 100 | > 100 |
| COc1c(Br)cccc1C(=O)Nc1ccc(Sc2nc3ccccc3s2)cc1 [Compound 34, N-(4-(Benzo[d]thiazol-2-ylthio)phenyl)-3-bromo-2-methoxybenzamide] | > 63.1 | > 63 | > 100 | > 100 | – | > 100 | > 100 | > 100 | > 100 | > 100 |
| COc1ccc(Br)cc1C(=O)Nc1ccc(Sc2nc3ccccc3s2)cc1 [Compound 35, N-(4-(Benzo[d]thiazol-2-ylthio)phenyl)-5-bromo-2-methoxybenzamide] | > 63.1 | > 63 | > 100 | > 100 | – | > 100 | > 100 | > 100 | > 100 | > 100 |
| COc1ccccc1C(=O)Nc1ccc(Sc2nc3ccccc3s2)cc1 [Compound 36, N-(4-(Benzo[d]thiazol-2-ylthio)phenyl)-2-methoxybenzamide] | > 63.1 | > 63 | > 100 | > 100 | – | > 100 | > 100 | > 100 | > 100 | > 100 |
| COc1c(Br)cc(Br)cc1C(=O)Nc1cccc(Cl)c1 [Compound 37, 3,5-Dibromo-N-(3-chlorophenyl)-2-methoxybenzamide] | > 63.1 | > 63 | > 100 | > 100 | > 100 | > 100 | > 100 | > 100 | > 100 | > 100 |
| COc1c(Br)cccc1C(=O)Nc1cccc(Cl)c1 [Compound 38] | > 63.1 | > 63 | > 100 | > 100 | – | > 100 | > 100 | > 100 | > 100 | > 100 |
| COc1ccc(Br)cc1C(=O)Nc1cccc(Cl)c1 [Compound 39, 5-Bromo-N-(3-chlorophenyl)-2-methoxybenzamide] | > 63.1 | > 63 | > 100 | > 100 | – | > 100 | > 100 | > 100 | > 100 | > 100 |
